Measured values as given in patent US9670194B2 (Calitor Sciences, LLC, priority 2013, dated 2017).
Read-outs that look alike come from different tables or passages of the source.

Assays:
[1] = Compound stability in human liver microsomes; format: in vitro ADME; conditions: for half-life at 5 μM: human liver microsomes 0.5 mg protein/mL, compound 5 μM, NADPH 1.0 mM, 37° C.; for CLint scaled at 5 μM: human liver microsomes, in vivo CLint extrapolated
[2] = Compound stability in rat liver microsomes; format: in vitro ADME; conditions: pH 7.4; for half-life at 5 μM: rat liver microsomes 0.5 mg protein/mL, compound 5 μM, NADPH 1.0 mM, 37° C.; for CLint scaled at 5 μM: rat liver microsomes, in vivo CLint extrapolated
[3] = Pharmacokinetics after intravenous and oral administration in rats; format: in vivo, rat; conditions: for CL/F / AUC(0-t) / half-life / Vd / clearance (CL): iv dosing; for bioavailability / AUC(0-t) / half-life / Vd: rat, plasma; for bioavailability: oral dose generally 5 or 10 mg/kg; for Vd: read-out: Vss

SMILES	half-life at 5 μM [1] [min]	CLint scaled at 5 μM [1] [mL/min/kg]	half-life at 5 μM [2] [min]	CLint scaled at 5 μM [2] [mL/min/kg]	CL/F ([3]; dose 1 mg/kg) [mL/min/kg]	bioavailability ([3]; iv dose 1 mg/kg) [%]	AUC(0-t) ([3]; dose 1 mg/kg) [ng·h/mL]	half-life ([3]; dose 1 mg/kg) [min]	Vd ([3]; dose 1 mg/kg) [L/kg]	clearance (CL) ([3]; dose 1 mg/kg) [mL/min/kg]	clearance (CL) ([3]; dose 0.48 mg/kg) [mL/min/kg]	bioavailability ([3]; iv dose 0.48 mg/kg) [%]	AUC(0-t) ([3]; dose 0.48 mg/kg) [ng·h/mL]	half-life ([3]; dose 0.48 mg/kg) [min]	Vd ([3]; dose 0.48 mg/kg) [L/kg]
CC[C@H](Nc1ncnc(N)c1-c1noc(C)n1)c1nc2cccc(C)c2c(=O)n1C1CC1	19.6	126	20	124	40.3	40.5	393	158	6.07						
CC[C@H](Nc1ncnc(N)c1-c1noc(C)n1)c1nc2ccccc2c(=O)n1-c1ccccc1F	11	227	2.69	923	118	8.88	143	63	7.21						
CC[C@H](Nc1ncnc(N)c1C1=N[C@@H](C)CO1)c1nc2cccc(Cl)c2c(=O)n1C1CC1 [Ex. 5, 2-((S)-1-((6-amino-5-((S)-4-methyl-4,5-dihydrooxazol-2-yl)pyrimidin-4-yl)amino)propyl)-5-chloro-3-cyclopropylquinazolin-4(3H)-one]	5.52	315	5.98	416		30.4	276	91.2	11.9	59.5					
CC[C@H](Nc1ncnc(N)c1-c1ncnn1C)c1nc2cccc(Cl)c2c(=O)n1C1CC1 [Ex. 9, 2-((1S)-1-((6-amino-5-(1-methyl-1H-1,2,4-triazol-5-yl)pyrimidin-4-yl)amino)-propyl)-5-chloro-3-cyclopropylquinazolin-4(3H)-one]	160	10.9	56.8	43.8		158	608	78	2.12	27.3					
CC[C@H](Nc1ncnc(N)c1-c1noc(C)n1)c1nc2cccc(Cl)c2c(=O)n1-c1ccccc1 [Ex. 13, (S)-2-(1-((6-amino-5-(5-methyl-1,2,4-oxadiazol-3-yl)pyrimidin-4-yl)amino)-propyl)-5-chloro-3-phenylquinazolin-4(3H)-one]	44.7	38.9	6.55	379		11.4	232	68.4	6.92	72.5					
CC[C@H](Nc1ncnc(N)c1-c1noc(C)n1)c1nc2cccc(C)c2c(=O)n1-c1ccccc1C [Ex. 15, (S)-2-(1-((6-amino-5-(5-methyl-1,2,4-oxadiazol-3-yl)pyrimidin-4-yl)amino)-propyl)-5-methyl-3-(o-tolyl)quinazolin-4(3H)-one]	12.6	138	4.84	513		36.4	223	69.6	7.41	74.2					
CC[C@H](Nc1ncnc(N)c1-c1noc(C)n1)c1nc2cccc(F)c2c(=O)n1C1CC1 [Ex. 16, (S)-2-(1-((6-amino-5-(5-methyl-1,2,4-oxadiazol-3-yl)pyrimidin-4-yl)amino)-propyl)-3-cyclopropyl-5-fluoroquinazolin-4(3H)-one]	22.9	108	19.7	126		18.3	249	45.6	4.3	68.7					
CC[C@H](Nc1ncnc(N)c1-c1ncn(C)n1)c1nc2cccc(C)c2c(=O)n1C1CC1 [Ex. 18, (S)-2-(1-((6-amino-5-(1-methyl-1H-1,2,4-triazol-3-yl)pyrimidin-4-yl)amino)propyl)-3-cyclopropyl-5-methylquinazolin-4(3H)-one]	16.5	105	9.24	269		60.6	307	53.4	2.94	54.2					
CC[C@H](Nc1ncnc(N)c1-c1nnc(C)o1)c1nc2ccccc2c(=O)n1-c1ccccc1F [Ex. 24, (S)-2-(1-((6-amino-5-(5-methyl-1,3,4-oxadiazol-2-yl)pyrimidin-4-yl)amino)-propyl)-3-(2-fluorophenyl)quinazolin-4(3H)-one]	17.1	146	5.42	458							70.5	69.1	121	30.6	2.31
CC[C@H](Nc1ncnc(N)c1-c1ncc(C)o1)c1nc2cccc(C)c2c(=O)n1-c1ccccc1C [Ex. 28, (S)-2-(1-((6-amino-5-(5-methyloxazol-2-yl)pyrimidin-4-yl)amino)propyl)-5-methyl-3-(o-tolyl)quinazolin-4(3H)-one]	8.69	286	5.12	485		7.67	265	265	8.92	61.2					
CC[C@H](Nc1ncnc(N)c1-c1nc(C)co1)c1nc2cccc(C)c2c(=O)n1-c1ccccc1C [Ex. 29, (S)-2-(1-((6-amino-5-(4-methyloxazol-2-yl)pyrimidin-4-yl)amino)propyl)-5-methyl-3-(o-tolyl)quinazolin-4(3H)-one]	1.92	1290	1.92	1300		4.56	247	122	13.2	130					
CC[C@H](Nc1ncnc(N)c1-c1ncn(C)n1)c1nc2cccc(C)c2c(=O)n1-c1ccccc1C [Ex. 30, (S)-2-(1-((6-amino-5-(1-methyl-1H-1,2,4-triazol-3-yl)pyrimidin-4-yl)amino)-propyl)-5-methyl-3-(o-tolyl)quinazolin-4(3H)-one]	17.8	140	8.46	294		22.4	238	51.6	3.84	70.5					
CC[C@H](Nc1ncnc(N)c1-c1nnn(C)n1)c1nc2cccc(Cl)c2c(=O)n1-c1cccc(F)c1 [Ex. 36, (S)-2-(1-((6-amino-5-(2-methyl-2H-tetrazol-5-yl)pyrimidin-4-yl)amino)propyl)-5-chloro-3-(3-fluorophenyl)quinazolin-4(3H)-one]	14.3	122	14.6	170											
CC[C@H](Nc1ncnc(N)c1-c1nnn(C)n1)c1nc2cccc(Cl)c2c(=O)n1C1CC1 [Ex. 54, (S)-2-(1-((6-amino-5-(2-methyl-2H-tetrazol-5-yl)pyrimidin-4-yl)amino)-propyl)-5-chloro-3-cyclopropylquinazolin-4(3H)-one]	42.8	40.6	99.1	25.1											
